This note sets out measurements from patent US9133187B2, “Serine/threonine kinase inhibitors” (ARRAY BIOPHARMA INC., priority 2011, dated 2015).

The target in test [1] is human ERK-2 (Mitogen Activated Kinase 1) (Homo sapiens (Human), UniProt P28482). As to the kind of experiment: ERK-2 Enzymatic Assay. The format is biochemical. Particulars: 5 nM ERK-2, 25 μM ATP, Omnia peptide S/T17; read-out: ERK Inhibition IC50. How it is done:
Compounds were tested in an enzymatic assay using human ERK-2 (Mitogen Activated Kinase 1), recombinantly expressed as an n-terminal 6-His fusion protein in E. coli and corresponding to aa 8-360. The substrate used was the fluorescent Omnia peptide S/T17 (Invitrogen of Carlsbad, Calif.; Cat. KNZ1171C). Test compounds were diluted in DMSO in 3-fold serial dilutions at 100× final concentrations. […] The assay was run at ambient temperature in a white 384-well polypropylene plate (Nunc, Inc of Naperville, Ill.; Cat. 267462) collecting data every 50 seconds for approximately 30 minutes on an Envision plate reader (PerkinElmer, Inc. of Waltham, Mass.); Excitation 340 nm/Emission 495 nm. The data collected from each well was fit to a straight line and the resulting rates were used to calculate percent of control. Percent of control was plotted against compound concentration and IC50 values were determined using a four-parameter fit.

For test [2], the system named is PMA-stimulated P90RSK(Ser380) phosphorylation in HepG2 cells. The test can be described thus: Cellular P90RSK(Ser380) Phosphorylation Assay. The format is cell-based. The note with it: Homo sapiens, 1.5 h compound incubation, PMA stimulation, pP90RSK(Ser380) normalized to GAPDH, read-out: Cell Assay IC50. The protocol:
Inhibition of PMA-stimulated P90RSK(Ser380) phosphorylation was determined by the following in vitro cellular mechanistic assay, which comprises incubating cells with a compound for 1.5 hours and quantifying fluorescent pP90RSK(Ser380) signal on fixed cells and normalizing to GAPDH signal.
Materials and Methods: HepG2 cells were obtained from ATCC and grown in DMEM supplemented with 10% fetal bovine serum. Cells were plated in 96-well plates at 35,000 cells/well and allowed to attach overnight at 37° C./5% CO2. Diluted compounds were then added at a final concentration of 0.5% DMSO. After 1.5 hour compound incubation, cells were stimulated with the addition of PMA (phorbol 12-myristate 13-acetate) at a final concentration of 100 ng/mL; the PMA stimulation was a 30-minute incubation at 37° C./5% CO2. After the 30-minute PMA stimulation, cells were washed with PBS and fixed in 3.7% formaldehyde in PBS at room temperature for 15-20 minutes. This was followed by another wash in PBS and then permeabilization in 100% MeOH at room temperature for 10-15 minutes. Following the permeabilization incubation, cells were washed in PBS/0.05% Tween-20, followed by a block in Odyssey blocking buffer (LI-COR Biosciences) for at least 1 hour. Antibodies to phosphorylated P90RSK(Ser380) (Cell Signaling #9335, rabbit monoclonal) and GAPDH (Fitzgerald 10R-G109a, mouse monoclonal) were added to the cells and incubated overnight at 4° C. pP90RSK(Ser380) antibody was used at a 1:250 dilution; GAPDH was used at a 1:10,000 dilution. After washing with PBS/0.05% Tween-20, the cells were incubated with fluorescently-labeled secondary antibodies (Anti-rabbit-Alexa Flour680, Invitrogen Cat#A21109; Anti-mouse-IRDye800CW, Rockland Inc. Cat#610-131-121) for 1 hour. Both secondary antibodies were used at a 1:1000 dilution. Cells were then washed and analyzed for fluorescence at both wavelengths using the Odyssey Infrared Imaging System (LI-COR Biosciences). Phosphorylated P90RSK(Ser380) signal was normalized to GAPDH signal. Representative date is in TABLE III (infra).

Sequence of human ERK-2 (Mitogen Activated Kinase 1) (P28482 8-360): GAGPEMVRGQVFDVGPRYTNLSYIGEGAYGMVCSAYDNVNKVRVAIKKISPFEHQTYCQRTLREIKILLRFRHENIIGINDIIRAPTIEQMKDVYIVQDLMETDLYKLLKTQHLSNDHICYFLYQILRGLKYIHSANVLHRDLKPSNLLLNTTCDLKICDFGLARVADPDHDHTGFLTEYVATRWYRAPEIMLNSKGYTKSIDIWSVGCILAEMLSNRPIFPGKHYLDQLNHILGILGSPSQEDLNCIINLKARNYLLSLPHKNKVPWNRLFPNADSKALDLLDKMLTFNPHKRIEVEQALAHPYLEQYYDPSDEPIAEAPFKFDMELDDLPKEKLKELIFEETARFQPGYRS

As a reminder, the IC50 is the midpoint of a concentration-inhibition curve. Take `Cc1cccc(CCNc2ncc3c(n2)CN(C(=O)N[C@H](CO)c2ccc(F)c(Cl)c2)CC3)n1` [II-10, 2-[2-(6-Methyl-pyridin-2-yl)-ethylamino]-5,8-dihydro-6H-pyrido[3,4-d]pyrimidine-7-carboxylic acid [(S)-1-(3-chloro-4-fluoro-phenyl)-2-hydroxy-ethyl]-amide]: the IC50 in test [1] came out at 0.061 µM; in test [2] it was 20.8 µM.
The corresponding values for `C[C@@H](NC(=O)N1CCc2cnc(NC(CO)CO)nc2C1)c1ccc(Cl)c(Cl)c1` [Compound I-75, (R)—N-(1-(3,4-dichlorophenyl)ethyl)-2-(1,3-dihydroxypropan-2-ylamino)-5,6-dihydropyrido[3,4-d]pyrimidine-7(8H)-carboxamide] are 0.0056 µM and 0.314 µM.
The corresponding values for `COCCOC[C@@H](NC(=O)N1CCc2cnc(N[C@@H](C)CO)nc2C1)c1ccc(F)c(Cl)c1` [II-78, 2-((S)-2-Hydroxy-1-methyl-ethylamino)-5,8-dihydro-6H-pyrido[3,4-d]pyrimidine-7-carboxylic acid [(S)-1-(3-chloro-4-fluoro-phenyl)-2-(2-methoxy-ethoxy)-ethyl]-amide] are 0.0177 µM and 1.4 µM.
The corresponding values for `C[C@@H](NC(=O)N1CCc2cnc(NC3CC(F)(F)C3)nc2C1)c1ccc(Cl)c(Cl)c1` [II-355, 2-(3,3-Difluoro-cyclobutylamino)-5,8-dihydro-6H-pyrido[3,4-d]pyrimidine-7-carboxylic acid [(R)-1-(3,4-dichloro-phenyl)-ethyl]-amide] are 0.0075 µM and 0.97 µM.
On to `C[C@@H](NC(=O)N1CCc2cnc(N[C@H](CO)Cc3ccccc3)nc2C1)c1ccc(Cl)c(Cl)c1` [II-111, 2-((S)-1-Hydroxymethyl-2-phenyl-ethylamino)-5,8-dihydro-6H-pyrido[3,4-d]pyrimidine-7-carboxylic acid [(R)-1-(3,4-dichloro-phenyl)-ethyl]-amide], for which the IC50 in test [1] came out at 0.0047 µM; in test [2], 0.693 µM.
The corresponding values for `CC(C)Nc1ncc2c(n1)CN(C(=O)N[C@H](CCN)c1ccc(C(F)(F)F)cc1)CC2` [Compound I-119, (R)—N-(3-amino-1-(4-(trifluoromethyl)phenyl)propyl)-2-(isopropylamino)-5,6-dihydropyrido[3,4-d]pyrimidine-7(8H)-carboxamide] are 0.0018 µM and 0.694 µM.
The corresponding values for `Cc1nccc(Nc2ncc3c(n2)CN(C(=O)N[C@H](C)c2ccc(Cl)c(Cl)c2)CC3)n1` [II-126, 2-(2-Methyl-pyrimidin-4-ylamino)-5,8-dihydro-6H-pyrido[3,4-d]pyrimidine-7-carboxylic acid [(R)-1-(3,4-dichloro-phenyl)-ethyl]-amide] are 0.0069 µM and 0.141 µM.
The corresponding values for `CC(C)Nc1ncc2c(n1)CN(C(=O)NC1(c3ccc(Cl)c(Cl)c3)CCNCC1)CC2` [Compound I-93, N-(4-(3,4-dichlorophenyl)piperidin-4-yl)-2-(isopropylamino)-5,6-dihydropyrido[3,4-d]pyrimidine-7(8H)-carboxamide] are 0.0038 µM and 6.2 µM.
On to `O=C(NC(c1cn[nH]c1)c1ccc(Cl)c(F)c1)N1CCc2cnc(NC3CCOCC3)nc2C1` (stereo not shown) [Compound I-7, N-((4-chloro-3-fluorophenyl)(1H-pyrazol-4-yl)methyl)-2-(tetrahydro-2H-pyran-4-ylamino)-5,6-dihydropyrido[3,4-d]pyrimidine-7(8H)-carboxamide], for which the results for the IC50 in test [1] and in test [2] were 0.0015 µM and 0.0435 µM, respectively.
In the case of `CC(C)Nc1ncc2c(n1)CN(C(=O)N[C@H](CNS(C)(=O)=O)c1ccc(F)c(Cl)c1)CC2` [II-43, 2-Isopropylamino-5,8-dihydro-6H-pyrido[3,4-d]pyrimidine-7-carboxylic acid [(S)-1-(3-chloro-4-fluoro-phenyl)-2-methanesulfonylamino-ethyl]-amide], the figures for the half-maximal inhibitory concentration (IC50) in test [1] and in test [2] were 0.0071 µM and 0.917 µM, respectively.
In the same order, the values of `CNC[C@@H](CC(=O)N1CCc2cnc(NC(C)C)nc2C1)c1ccc(Cl)c(F)c1` [Compound I-17, (S)-3-(4-Chloro-3-fluoro-phenyl)-1-(2-isopropylamino-5,8-dihydro-6H-pyrido[3,4-d]pyrimidin-7-yl)-4-methylamino-butan-1-one] are 0.0032 µM and 0.281 µM.
In the same order, the values of `C[C@@H](CO)Nc1ncc2c(n1)CN(C(=O)NCc1cnc(C(F)(F)F)nc1)CC2` [Compound I-109, 2-((S)-2-Hydroxy-1-methyl-ethylamino)-5,8-dihydro-6H-pyrido[3,4-d]pyrimidine-7-carboxylic acid (2-trifluoromethyl-pyrimidin-5-ylmethyl)-amide] are 0.0927 µM and 3.3 µM.
In the same order, the values of `C[C@@H](CO)Nc1ncc2c(n1)CN(C(=O)NCc1cccc3cc[nH]c13)CC2` [II-200, 2-((S)-2-Hydroxy-1-methyl-ethylamino)-5,8-dihydro-6H-pyrido[3,4-d]pyrimidine-7-carboxylic acid (1H-indol-7-ylmethyl)-amide] are 0.411 µM and 1 µM.
Take `CC(C)Nc1ncc2c(n1)CN(C(=O)N[C@@H](c1ccc(Cl)c(Cl)c1)[C@H]1CCCN1C)CC2` [Compound I-61, N—((S)-(3,4-dichlorophenyl)((R)-1-methylpyrrolidin-2-yl)methyl)-2-(isopropylamino)-5,6-dihydropyrido[3,4-d]pyrimidine-7(8H)-carboxamide]: the IC50 in test [1] came to 0.0029 µM; in test [2], 0.093 µM.
In the same order, the values of `N#CCN1C[C@@H](NC(=O)N2CCc3cnc(NC4CCOCC4)nc3C2)[C@H](c2ccc(F)c(F)c2)C1` [II-341, 2-(Tetrahydro-pyran-4-ylamino)-5,8-dihydro-6H-pyrido[3,4-d]pyrimidine-7-carboxylic acid [(3S,4R)-1-cyanomethyl-4-(3,4-difluoro-phenyl)-pyrrolidin-3-yl]-amide] are 0.004 µM and 0.371 µM.
Consider `O=C(N[C@@H](c1ccc(Cl)c(F)c1)c1ccno1)N1CCc2cnc(NC3CCOCC3)nc2C1` [Compound I-12, (S)—N-((4-chloro-3-fluorophenyl)(isoxazol-5-yl)methyl)-2-(tetrahydro-2H-pyran-4-ylamino)-5,6-dihydropyrido[3,4-d]pyrimidine-7(8H)-carboxamide], for which the IC50 in test [1] turned out to be 0.004 µM; in test [2], 0.235 µM.
As to `O=C(N1CCc2cnc(NC3CCOCC3)nc2C1)N1CCCC1c1ccc(F)cc1` (stereo not shown) [Compound I-134, (2-(4-fluorophenyl)pyrrolidin-1-yl)(2-(tetrahydro-2H-pyran-4-ylamino)-5,6-dihydropyrido[3,4-d]pyrimidin-7(8H)-yl)methanone], the IC50 turned out to be 0.0204 µM in test [1] and 1.2 µM in test [2].
In the same order, the values of `C[C@@H](NC(=O)N1Cc2nc(NC3CCOCC3)ncc2C(F)(F)C1)c1ccc(Cl)c(Cl)c1` [Compound I-50, (R)—N-(1-(3,4-dichlorophenyl)ethyl)-5,5-difluoro-2-(tetrahydro-2H-pyran-4-ylamino)-5,6-dihydropyrido[3,4-d]pyrimidine-7(8H)-carboxamide] are 0.0016 µM and 0.0283 µM.
The corresponding values for `CC(C)Nc1ncc2c(n1)CN(C(=O)N[C@@H](c1ccc(F)c(Cl)c1)[C@H](C)O)CC2` [II-40, 2-Isopropylamino-5,8-dihydro-6H-pyrido[3,4-d]pyrimidine-7-carboxylic acid [(1S,2S)-1-(3-chloro-4-fluoro-phenyl)-2-hydroxy-propyl]-amide] are 0.00323 µM and 0.0873 µM.
As for `CCCC(NC(=O)N1CCc2cnc(N[C@@H](C)CO)nc2C1)c1ccc(OC)c(F)c1` (stereo partly shown) [II-415, 2-(2-Hydroxy-1-methyl-ethylamino)-5,8-dihydro-6H-pyrido[3,4-d]pyrimidine-7-carboxylic acid [1-(3-fluoro-4-methoxy-phenyl)-butyl]-amide], the results for the IC50 in test [1] and in test [2] were 0.0023 µM and 0.0395 µM, respectively.
